This note sets out measurements from US20220411448A1, “CHROMENE-4-ONE DERIVATIVES AS BRAIN-DERIVED NEUROTROPHIC FACTOR (BDNF) MIMETICS” (FLORATEK PHARMA AG, priority 2019, published 2022).

Bounds are passed on as bounds.

The test system of series [1] is primary cultures of cortical neurons. In words: Primary neuronal culture viability (MTT assay). The format is cell-based, mouse. The settings on record: primary neuron culture, 24 hours. How it is done:
For neuronal cultures, primary cultures of cortical neurons were prepared from embryonic day 17 (E17) OF1 mice embryos (Charles River Laboratories) as previously described [Allaman I., Pellerin L., Magistretti P. J. (2004) Glucocorticoids modulate neurotransmitter-induced glycogen metabolism in cultured cortical astrocytes. J. Neurochem. 88, 900-908] or from C57BL/6JRccHsd mice at E18. Animals were sacrificed and embryos were dissected in Calcium and Magnesium free Hanks Balanced Salt Solution (CMF-HBSS) containing 15 mM HEPES and 10 mM NaHCO3, pH 7.2. Embryos were decapitated, skin and skull gently removed and hemispheres were separated. […]
The MTT assay was conducted according to manufacturer's instructions (Invitrogen/Molecular Probes, Eugene, Oreg.) and was measured using a plate reader at an absorbance wavelength of 570 nm. Cell survival rate was expressed either as the absorbance values or as optical density (OD), with values calculated as % of controls.
Primary neuronal culture viability in the presence of Compound A/SND118 Primary neuron culture was prepared as described and treated with Compound A/SND118 at various concentrations for 24 hours. Cellular viability was measured using MTT assay as described.

For series [2], the system named is IL-6. As to the kind of experiment: LPS stimulation of BV-2 microglia: IL-6. The following applies: between 0.3 and 3 μM, BV2, LPS 500 ng/ml, 24 h. The format is cell-based, murine. The procedure:
The murine microglial cell line BV-2 was grown in DMEM medium supplemented with 10% FCS, 1% penicillin/streptomycin and 2 mM L-glutamine (culture medium). For LPS stimulation assay, 10000 BV-2 cells per well (uncoated 96 well plates) were plated and after 24 hours, medium was changed to serum-free treatment medium (DMEM, 2 mM L-glutamine) and cells were maintained in treatment medium for the remaining culture period. 1 h after changing cells to treatment medium, the test items were added 1 hour before LPS stimulation (Sigma-Aldrich; L6529; 1 mg/ml stock in ddH2O, final concentration in well: 500 ng/ml (dilutions in medium)). Cells treated with vehicle, cells treated with LPS alone, as well as cells treated with LPS plus reference dexamethasone at 10 μM item served as controls.
Following 24 h of stimulation, cell supernatants were collected for the NO, and cytokine measurements. Levels of 2 cytokines (TNF-α, IL-6) were measured by an immunosorbent assay (U-PLEX Custom […] Cytokine, Mesoscale Discovery) according to the instructions of the manufacturer and evaluated in comparison to calibration curves provided in the kit. […] Absorbance was measured at 570 nm. Nitrosative stress was evaluated in the study samples in comparison to a NaNO2 standard curve. […]

Series [3] is described as follows: Metabolic stability in mouse liver microsomes. The following applies: male, CD1, mouse, pooled liver microsomes, pH 7.4, 0.5 mg/ml protein, read-out: T1/2 LM mouse. In kind it is in vitro ADME. The procedure: Sample type: pooled liver or intestine microsomes; Species: CD1-mouse (male), human (mixed gender) Time points: 0, 10, 20, 40, 60 min cofactors, and negative control;
Protein content: 0.5 mg/ml: Replicates: 2 with cofactors, 1 without cofactors; Cofactors: NADPH (1 mM)+UDPGA (1 mM)+15 μg/ml alamethicin Buffer: 0.1 M phosphate buffer pH 7.4, 2 mM MgCl2; Spiking solvent: 50% DMSO ( 1/100 to incubation); Quenching solvent: 2-fold volume of 75% ACN, Control: midazolam disappearance rate
The study compounds were incubated with liver or intestine microsomes as specified above. The collected samples were stored at −20 C until thawed at room temperature, centrifuged and analyzed as presented below.
The samples were analysed by UPLC/HR-MS (with data dependent MS/MS mode) to monitor substrate depletion (and later optionally metabolite formation). The analytical method was optimised by using the parent compound for optimum chromatographic properties (peak shape and retention) and mass spectrometric ionisation. Disappearance rate of the study compound was estimated based on relative LC/MS peak areas (o min marked as 100%), and was used to calculate in vitro half-life and clearance (and in vivo extrapolation of hepatic clearance).
In general terms: Liver microsomes are a subcellular fraction often used to study metabolism.

Take `O=c1cc(-c2ccc(CCCC[P+](c3ccccc3)(c3ccccc3)c3ccccc3)cc2)oc2c(O)c(O)ccc12` [SND118, 4-[4-(7,8-dihydroxy-4-oxo-chromen-2-yl)phenyl]butyltriphenylphosphonium bromide]: the “Cellular viability (MTT): concentration up to which not toxic” value in series [1] is no more than 10 µM. Besides, the “level of IL-6 in response to LPS stimulation” value in series [2] was “significantly decreased”. Further, in series [3], the half-life at 1 μM was 23 min.
